From patent US8404708B2, “Dual NK1/NK3 receptor antagonists” (Hoffmann-La Roche Inc., priority 2004, dated 2013) come the findings set out here.

Test [1] addresses T1, Recombinant human NK3 (hNK3) receptor (Homo sapiens, UniProt P29371).
T1 construct: expressed in transfected cells
T1 sequence (P29371 1-465): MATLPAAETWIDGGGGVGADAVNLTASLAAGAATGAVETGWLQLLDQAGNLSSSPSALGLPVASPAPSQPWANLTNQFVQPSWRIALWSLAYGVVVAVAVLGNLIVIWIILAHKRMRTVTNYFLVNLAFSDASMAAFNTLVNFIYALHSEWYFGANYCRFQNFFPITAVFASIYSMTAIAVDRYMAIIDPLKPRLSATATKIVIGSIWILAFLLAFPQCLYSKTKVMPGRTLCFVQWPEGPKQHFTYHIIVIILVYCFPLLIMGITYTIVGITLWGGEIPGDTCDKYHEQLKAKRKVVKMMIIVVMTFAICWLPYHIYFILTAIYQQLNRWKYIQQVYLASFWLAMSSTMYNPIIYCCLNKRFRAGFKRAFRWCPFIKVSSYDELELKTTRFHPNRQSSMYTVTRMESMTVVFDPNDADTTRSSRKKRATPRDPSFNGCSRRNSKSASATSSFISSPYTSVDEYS
In words: NK3 receptor binding, [3H]SR142801 displacement, membrane preparations. The following applies: second value of the cell NK1/NK3; read-out: pKi NK3 (converted). In short, it runs like this: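 Room-temperature, 90-min filtration binding assay using about 2.5 μg recombinant receptor membranes per well; separation on polyethyleneimine-treated glass-fibre (GF/C) filters and liquid scintillation read-out, with 10 μM SB222200 for nonspecific binding.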

The target in the next test is human NK1 receptor (Homo sapiens, UniProt P25103). In words: NK1 receptor binding, [3H]substance P displacement, CHO cell membranes. As to conditions: first value of the cell NK1/NK3; read-out: pKi NK1 (converted).
human NK1 receptor, sequence (P25103 whole entry): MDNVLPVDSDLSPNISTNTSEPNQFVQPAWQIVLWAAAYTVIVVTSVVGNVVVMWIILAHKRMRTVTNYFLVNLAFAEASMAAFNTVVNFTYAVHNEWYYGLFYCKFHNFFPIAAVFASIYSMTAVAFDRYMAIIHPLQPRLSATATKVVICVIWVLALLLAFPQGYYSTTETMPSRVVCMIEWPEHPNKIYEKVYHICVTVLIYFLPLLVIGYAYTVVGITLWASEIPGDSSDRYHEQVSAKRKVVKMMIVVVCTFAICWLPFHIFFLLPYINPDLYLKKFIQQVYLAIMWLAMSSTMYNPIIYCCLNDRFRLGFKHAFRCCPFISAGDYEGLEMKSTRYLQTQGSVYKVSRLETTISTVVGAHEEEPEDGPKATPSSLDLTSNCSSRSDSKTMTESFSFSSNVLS

`CN(C(=O)C(C)(C)c1cc(C(F)(F)F)cc(C(F)(F)F)c1)c1cnc(N2C[C@H](O)C[C@H]2CO)cc1-c1cccc(Cl)c1Cl` [Example 229, (2S,4R)-2-(3,5-Bis-trifluoromethyl-phenyl)-N-[4-(2,3-dichloro-phenyl)-6-(4-hydroxy-2-hydroxymethyl-pyrrolidin-1-yl)-pyridin-3-yl]-N-methyl-isobutyramide]: the Ki in test [1] was 1.86 nM; on human NK1 receptor, 2.95 nM.
On to `Cc1noc(C)c1-c1cc(N2C[C@H](O)C[C@H]2CO)ncc1N(C)C(=O)C(C)(C)c1cc(C(F)(F)F)cc(C(F)(F)F)c1` [Example 230, (2S,4R)-2-(3,5-Bis-trifluoromethyl-phenyl)-N-[4-(3,5-dimethyl-isoxazol-4-yl)-6-(4-hydroxy-2-hydroxymethyl-pyrrolidin-1-yl)-pyridin-3-yl]-N-methyl-isobutyramide], for which the Ki in test [1] was 2.69 nM; at human NK1 receptor it was 0.741 nM.
As for `COc1ccc(-c2cc(N3C[C@H](O)C[C@H]3CO)ncc2N(C)C(=O)C(C)(C)c2cc(C(F)(F)F)cc(C(F)(F)F)c2)c(OC)n1` [Example 231, (2S,4R)-2-(3,5-Bis-trifluoromethyl-phenyl)-N-[6′-(4-hydroxy-2-hydroxymethyl-pyrrolidin-1-yl)-2,6-dimethoxy-[3,4′]bipyridinyl-3′-yl]-N-methyl-isobutyramide], the Ki in test [1] was 14.1 nM; at human NK1 receptor, 2.45 nM.
On to `CN(C(=O)C(C)(C)c1cc(C(F)(F)F)cc(C(F)(F)F)c1)c1cnc(N2C[C@H](O)C[C@H]2CO)cc1-c1cccnc1Cl` [Example 232, (2S,4R)-2-(3,5-Bis-trifluoromethyl-phenyl)-N-[2-chloro-6′-(4-hydroxy-2-hydroxymethyl-pyrrolidin-1-yl)-[3,4′]bipyridinyl-3′-yl]-N-methyl-isobutyramide], for which the Ki in test [1] is 1.35 nM; on human NK1 receptor, 0.575 nM.
As for `Cc1ncccc1-c1cc(N2C[C@H](O)C[C@H]2CO)ncc1N(C)C(=O)C(C)(C)c1cc(C(F)(F)F)cc(C(F)(F)F)c1` [Example 233, (2S,4R)-2-(3,5-Bis-trifluoromethyl-phenyl)-N-[6′-(4-hydroxy-2-hydroxymethyl-pyrrolidin-1-yl)-2-methyl-[3,4′]bipyridinyl-3′-yl]-N-methyl-isobutyramide], the Ki in test [1] is 3.89 nM; on human NK1 receptor, 0.427 nM.
For `CN(C(=O)C(C)(C)c1cc(C(F)(F)F)cc(C(F)(F)F)c1)c1cnc(N2C[C@H](O)C[C@H]2CO)cc1-c1ncccc1Cl` [Example 234, (2S,4R)-2-(3,5-Bis-trifluoromethyl-phenyl)-N-[3-chloro-6′-(4-hydroxy-2-hydroxymethyl-pyrrolidin-1-yl)-[2,4′]bipyridinyl-3′-yl]-N-methyl-isobutyramide], the Ki in test [1] was 11 nM; on human NK1 receptor, 2.19 nM.
For `CN(C(=O)C(C)(C)c1cc(C(F)(F)F)cc(C(F)(F)F)c1)c1cnc(N2C[C@@H](O)C[C@H]2CO)cc1-c1ccc(F)cc1Cl` [Example 235, (2S,4S)-2-(3,5-Bis-trifluoromethyl-phenyl)-N-[4-(2-chloro-4-fluoro-phenyl)-6-(4-hydroxy-2-hydroxymethyl-pyrrolidin-1-yl)-pyridin-3-yl]-N-methyl-isobutyramide], in that order: 1.26 nM and 1.66 nM.
For `CN(C(=O)C(C)(C)c1cc(C(F)(F)F)cc(C(F)(F)F)c1)c1cnc(N2C[C@@H](O)C[C@H]2CO)cc1-c1ccc(Cl)cc1Cl` [Example 236, (2S,4S)-2-(3,5-Bis-trifluoromethyl-phenyl)-N-[4-(2,4-dichloro-phenyl)-6-(4-hydroxy-2-hydroxymethyl-pyrrolidin-1-yl)-pyridin-3-yl]-N-methyl-isobutyramide], in that order: 1.78 nM and 1.78 nM.
On to `CN(C(=O)C(C)(C)c1cc(C(F)(F)F)cc(C(F)(F)F)c1)c1cnc(N2C[C@@H](O)C[C@H]2CO)cc1-c1ccc(F)cc1F` [Example 237, (2S,4S)-2-(3,5-Bis-trifluoromethyl-phenyl)-N-[4-(2,4-difluoro-phenyl)-6-(4-hydroxy-2-hydroxymethyl-pyrrolidin-1-yl)-pyridin-3-yl]-N-methyl-isobutyramide], for which the Ki in test [1] was 7.76 nM; on human NK1 receptor, 1.02 nM.
`Cc1cc(F)ccc1-c1cc(N2C[C@@H](O)C[C@H]2CO)ncc1N(C)C(=O)C(C)(C)c1cc(C(F)(F)F)cc(C(F)(F)F)c1` [Example 238, (2S,4S)-2-(3,5-Bis-trifluoromethyl-phenyl)-N-[4-(4-fluoro-2-methyl-phenyl)-6-(4-hydroxy-2-hydroxymethyl-pyrrolidin-1-yl)-pyridin-3-yl]-N-methyl-isobutyramide]: the values for the Ki (in test [1]; at human NK1 receptor) were 1.02 nM and 1.23 nM, respectively.
Consider `CN(C(=O)C(C)(C)c1cc(C(F)(F)F)cc(C(F)(F)F)c1)c1cnc(N2C[C@@H](O)C[C@H]2CO)cc1-c1ccc(F)cc1C=O` [Example 239, (2S,4S)-2-(3,5-Bis-trifluoromethyl-phenyl)-N-[4-(4-fluoro-2-formyl-phenyl)-6-(4-hydroxy-2-hydroxymethyl-pyrrolidin-1-yl)-pyridin-3-yl]-N-methyl-isobutyramide], for which the figures for the Ki (in test [1]; at human NK1 receptor) were 1.48 nM and 1.62 nM, respectively.
Consider `CN(C(=O)C(C)(C)c1cc(C(F)(F)F)cc(C(F)(F)F)c1)c1cnc(N2C[C@@H](O)C[C@H]2CO)cc1-c1ccc(F)cc1CO` [Example 240, (2S,4S)-2-(3,5-Bis-trifluoromethyl-phenyl)-N-[4-(4-fluoro-2-hydroxymethyl-phenyl)-6-(4-hydroxy-2-hydroxymethyl-pyrrolidin-1-yl)-pyridin-3-yl]-N-methyl-isobutyramide], for which the Ki in test [1] is 3.02 nM; on human NK1 receptor, 0.794 nM.
Regarding `Cc1ccccc1-c1cc(N2C[C@@H](O)C[C@H]2CO)ncc1N(C)C(=O)C(C)(C)c1cc(C(F)(F)F)cc(C(F)(F)F)c1` [Example 241, (2S,4S)-2-(3,5-Bis-trifluoromethyl-phenyl)-N-[6-(4-hydroxy-2-hydroxymethyl-pyrrolidin-1-yl)-4-o-tolyl-pyridin-3-yl]-N-methyl-isobutyramide], the Ki in test [1] is 1.62 nM; at human NK1 receptor it was 1.45 nM.
As for `CN(C(=O)C(C)(C)c1cc(C(F)(F)F)cc(C(F)(F)F)c1)c1cnc(N2C[C@@H](O)C[C@H]2CO)cc1-c1ccccc1F` [Example 242, (2S,4S)-2-(3,5-Bis-trifluoromethyl-phenyl)-N-[4-(2-fluoro-phenyl)-6-(4-hydroxy-2-hydroxymethyl-pyrrolidin-1-yl)-pyridin-3-yl]-N-methyl-isobutyramide], the Ki was 6.92 nM in test [1] and 1.32 nM on human NK1 receptor.
In the case of `CN(C(=O)C(C)(C)c1cc(C(F)(F)F)cc(C(F)(F)F)c1)c1cnc(N2C[C@@H](O)C[C@H]2CO)cc1-c1ccccc1C(F)(F)F` [Example 243, (2S,4S)-2-(3,5-Bis-trifluoromethyl-phenyl)-N-[6-(4-hydroxy-2-hydroxymethyl-pyrrolidin-1-yl)-4-(2-trifluoromethyl-phenyl)-pyridin-3-yl]-N-methyl-isobutyramide], the Ki in test [1] is 4.68 nM; at human NK1 receptor, 3.89 nM.
Regarding `COc1ccccc1-c1cc(N2C[C@@H](O)C[C@H]2CO)ncc1N(C)C(=O)C(C)(C)c1cc(C(F)(F)F)cc(C(F)(F)F)c1` [Example 244, (2S,4S)-2-(3,5-Bis-trifluoromethyl-phenyl)-N-[6-(4-hydroxy-2-hydroxymethyl-pyrrolidin-1-yl)-4-(2-methoxy-phenyl)-pyridin-3-yl]-N-methyl-isobutyramide], the Ki in test [1] was 7.08 nM; at human NK1 receptor it was 1 nM.
